{"source": "patent US8119170B2", "about": "“Herbal compositions and methods for enhancing vital energy and athletic performance” (priority 2008, dated 2012)", "key": {"L6 rat skeletal cells [1]": {"system": "L6 rat skeletal cells", "experiment": "MTT assay, viability of L6 cells under hypoxic conditions", "type": "cell-based", "conditions": "80 μg/ml, 12 h pretreatment, 1 h hypoxia; vehicle 27% ± 1.3%; means ± SD", "procedure": "L6 cells were cultured in 96-well tissue culture plates (1×10^4 cell/well) with 10% FBS for 24 hours. Serum-free medium was then used for another 24 hours prior to treatment with RGC, Rhodiola crenulata extract, or Ginkgo biloba extract. Cell viability and proliferation were measured by the 3-(4,5-dimethylthiazol-2-yl)-2,5-diphenyltetrazolium bromide (MTT) and 5-bromo-2′-deoxyuridine (BrdU) (Roche Diagnostics, USA) incorporation assays, respectively.\nThe L6 cells were plated in 96-well plates (5000 cell/well) for 24 hours. Then the serum-free medium was used and cells incubated for another 12 hours. Sequentially, cells were pretreated with various concentrations (20 μg/ml, 40 μg/ml, 80 μg/ml) of RG, Rhodiola Crenulata, or Ginkgo biloba, respectively, or Vitamin C (80 μg/ml) for 12 hours, followed by exposure to an ischemic solution (EBSS) and placed in an anaerobic chamber (Diagnostic System) for 1 hour. The control cells were incubated without treatment for 1 hour. After 1 hour exposure to hypoxic and ischemic environments, 100 μl MTT (0.5 mg/ml in PBS) was added to each well and the cells were incubated at 37° C. for 4 h. The MTT solution was prepared by dissolving 250 mg of MTT in 50 ml PBS (0.01 mol/L, PH7.4) to prepare 0.5% MTT staining solution. The solution was then filtered through Millipore membrane and stored at 4° C. […]"}, "L6 rat skeletal cells [2]": {"system": "L6 rat skeletal cells", "experiment": "SOD antioxidant assay, SOD activity of L6 cells under hypoxic conditions", "type": "cell-based", "conditions": "80 μg/ml, hypoxic condition; vehicle 16.58% ± 0.31%; means ± SD", "procedure": "Cells were homogenized in ice-cold phosphate buffer (50 mmol/L, pH 7.4) to make 10% w/v homogenate with a motor-driven Potter-Elvejhem glass homogenizer at 0-4° C. The homogenate will be then centrifuged at 300 g for 10 min at 4° C. to remove intact cells and debris. The remaining supernatant was divided into 2 parts for different enzyme assays. For SOD assays, the supernatant will be centrifuged at 2300 g for a further 10 min at 4° C. After centrifugation, the pellets will be discarded and the supernatants were used for the assessment of enzyme activity. The procedure was carried out on ice or at 0-4° C. Reagents for the assay were obtained through a commercially available SOD Assay Kit.\nThe samples were mixed and placed in a water bath at 37° C. for 40 min. A chromogenic agent (200 μl) was then added, the samples mixed, then left at room temperature for 10 min before absorbance at 550 nm was detected. The Inhibition ration was then calculated using the formula: Inhibition ratio=(ODn−OD1)/OD1×100%. […] The protein concentration was measured using the BCA protein quantitative assay.\nAfter 10 μl was selected for use for the SOD assays, SOD activity assays were performed for the samples of the various treatment groups (20 μg/ml, 40 μg/ml, or 80 μg/ml of RG, Rhodiola Crenulata, or Ginkgo biloba, respectively, and 80 μg/ml of Vitamin C) where the sample volumes were as shown in Table 10. […]"}}}
{"smiles": "O=C1O[C@H]([C@@H](O)CO)C(O)=C1O", "note": "[Vitamin C]", "values": [{"measurement": "Cell proliferation in hypoxic conditions (cell survival rate, MTT)", "setting": "L6 rat skeletal cells [1]", "value": "41% ± 3.2%"}, {"measurement": "SOD Enzymatic Activity", "setting": "L6 rat skeletal cells [2]", "value": "20.00% ± 0.08%"}]}
